Reference: patent US6737383B1, “Herbicidal oxadiazolidines” (priority 1999, dated 2004)

What was measured:
crabgrass = experiment: Test B pre/postemergence crabgrass; format: in vivo, Digitaria sanguinalis
In short: (§1)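 Response is a visual 0-to-10 score relative to untreated plants, where 0 means no effect and 10 means complete control, taken twelve to sixteen days after application. Treatments went onto soil at planting and onto foliage of 1- to 4-leaf plants, using a surfactant-containing non-phytotoxic solvent.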

giant foxtail = experiment: Test B pre/postemergence giant foxtail; format: in vivo, Setaria faberii
In short: as §1

wheat = experiment: Test B pre/postemergence wheat; format: in vivo, Triticum aestivum
In short: as §1

winter wheat [1] = experiment: Test E winter wheat; format: in vivo, Triticum aestivum; details: Postemergence
In short: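 Visually scored herbicidal effect relative to untreated plants, taken ~21 to 28 days post-application; compound in solvent with surfactant; postemergence sprays at the 1- to 4-leaf stage.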

blackgrass = experiment: Test E blackgrass; format: in vivo, Alopecurus myosuroides; details: Preemergence
green foxtail = experiment: Test E green foxtail; format: in vivo, Setaria viridis; details: Preemergence
Italian ryegrass = experiment: Test E Italian ryegrass; format: in vivo, Lolium multiflorum; details: Preemergence
winter wheat [2] = experiment: Test E winter wheat; format: in vivo, Triticum aestivum; details: Preemergence
wild oat = experiment: Test E wild oat; format: in vivo, Avena fatua; details: Preemergence; for Plant response rating, Wild oat: 0 to 100 scale where 0 is no effect and 100 is complete control
winter barley = experiment: Test E winter barley; format: in vivo, Hordeum vulgare; details: Preemergence
duck salad = experiment: Test B flood test duck salad; format: in vivo, Heteranthera limosa
In short: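 Each value is a visual injury score relative to controls, with 10 meaning complete control and 0 no effect. Evaluation took place twelve to sixteen days after the 2-leaf-stage plants were treated and kept in the greenhouse.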

[3] = Postemergence, Rate 62 g/ha, scale 0 to 10, 0 is no effect, 10 is complete control
[4] = Postemergence, Rate 125 g/ha, scale of 0 to 10 where 0 is no effect and 10 is complete control
[5] = Postemergence, Rate 250 g/ha, scale 0 to 10, 0 no effect, 10 complete control
[6] = Preemergence, Rate 62 g/ha, scale 0 to 10 (0 no effect, 10 complete control)
[7] = Preemergence, Rate 125 g/ha, scale 0 to 10 (0 no effect, 10 complete control)
[8] = Preemergence, Rate 250 g/ha, scale of 0 to 10 where 0 is no effect and 10 is complete control
[9] = Preemergence, Rate 500 g/ha, scale 0 (no effect) to 10 (complete control)
[10] = Rate 500 g/ha, Postemergence, scale 0 to 10, 0 no effect, 10 complete control
[11] = Rate 1000 g/ha, 0 to 100 scale, 0 is no effect and 100 is complete control
[12] = Rate 1000 g/ha, 0 to 100 scale where 0 is no effect and 100 is complete control
[13] = Preemergence, Rate 62 g/ha, scale of 0 to 10 where 0 is no effect and 10 is complete control
[14] = Preemergence, Rate 250 g/ha, scale 0 to 10, 0 is no effect, 10 is complete control
[15] = Preemergence, Rate 500 g/ha, scale 0 to 10 (0 no effect, 10 complete control)
[16] = Rate 62 g/ha, Postemergence, scale of 0 to 10 where 0 is no effect and 10 is complete control
[17] = Rate 250 g/ha, Postemergence, scale 0 to 10, 0 is no effect, 10 is complete control
[18] = Rate 500 g/ha, Postemergence, scale 0 to 10
[19] = Preemergence, Rate 125 g/ha, 0 is no effect, 10 is complete control
[20] = Rate 500 g/ha, 0 to 100 scale where 0 is no effect and 100 is complete control
[21] = Postemergence, Rate 250 g/ha, scale of 0 to 10, 0 is no effect, 10 is complete control
[22] = Preemergence, Rate 125 g/ha, scale of 0 to 10 where 0 is no effect and 10 is complete control
[23] = Preemergence, Rate 250 g/ha, scale 0 to 10 (0 no effect, 10 complete control)
[24] = Preemergence, Rate 500 g/ha, scale of 0 to 10 where 0 is no effect and 10 is complete control
[25] = Rate 500 g/ha, Postemergence, scale 0 to 10, 0 is no effect, 10 is complete control

**Q.** How did the “Crabgrass plant response rating” value (crabgrass; [3]) turn out when `Cc1ccccc1Cn1c(=O)on(C(=O)N(c2ccc(F)cc2)C(C)C)c1=O` [Compound 88] was run?
**A.** 0

**Q.** What about the “Crabgrass plant response rating” value (crabgrass; [4]) of the same molecule?
**A.** 0

**Q.** What about the “Crabgrass plant response rating” value (crabgrass; [5]) of the same molecule?
**A.** 9

**Q.** And the “Crabgrass plant response rating” value (crabgrass; [6])?
**A.** 5

**Q.** What about the “Plant response rating, Crabgrass” value (crabgrass; [7]) of the same molecule?
**A.** 7

**Q.** What about the “Plant response rating, Crabgrass” value (crabgrass; [8]) of the same molecule?
**A.** 10

**Q.** What about the “Crabgrass plant response rating” value (crabgrass; [9]) of the same molecule?
**A.** 10

**Q.** What about the “Crabgrass plant response rating” value (crabgrass; [10]) of the same molecule?
**A.** 9

**Q.** And the “Giant foxtail plant response rating” value (giant foxtail; [3])?
**A.** 0

**Q.** And the “Giant foxtail plant response rating” value (giant foxtail; [4])?
**A.** 3

**Q.** What about the “Giant foxtail plant response rating” value (giant foxtail; [5]) of the same molecule?
**A.** 3

**Q.** And the “Giant foxtail plant response rating” value (giant foxtail; [6])?
**A.** 4

**Q.** And the “Plant response rating, Giant foxtail” value (giant foxtail; [7])?
**A.** 6

**Q.** And the “Plant response rating, Giant foxtail” value (giant foxtail; [8])?
**A.** 10

**Q.** And the “Giant foxtail plant response rating” value (giant foxtail; [9])?
**A.** 10

**Q.** What about the “Giant foxtail plant response rating” value (giant foxtail; [10]) of the same molecule?
**A.** 3

**Q.** And the “Wheat plant response rating” value (wheat; [3])?
**A.** 0

**Q.** What about the “Wheat plant response rating” value (wheat; [4]) of the same molecule?
**A.** 0

**Q.** And the “Wheat plant response rating” value (wheat; [5])?
**A.** 0

**Q.** What about the “Wheat plant response rating” value (wheat; [6]) of the same molecule?
**A.** 0

**Q.** What about the “Plant response rating, Wheat” value (wheat; [7]) of the same molecule?
**A.** 0

**Q.** And the “Plant response rating, Wheat” value (wheat; [8])?
**A.** 0

**Q.** And the “Wheat plant response rating” value (wheat; [9])?
**A.** 0

**Q.** What about the “Wheat plant response rating” value (wheat; [10]) of the same molecule?
**A.** 0

**Q.** What about the “Plant response rating, Wheat (winter)” value (winter wheat [1]; Rate 250 g/ha, 0 to 100 scale (0 no effect, 100 complete control)) of the same molecule?
**A.** 0

**Q.** And the “Plant response rating, Wheat (winter)” value (winter wheat [1]; [11])?
**A.** 10

**Q.** And the “Plant response rating, Blackgrass” value (blackgrass; Rate 250 g/ha, 0 to 100 scale)?
**A.** 50

**Q.** What about the “Plant response rating, Blackgrass” value (blackgrass; [12]) of the same molecule?
**A.** 50

**Q.** And the “Plant response rating, Green foxtail” value (green foxtail; Rate 250 g/ha, 0 to 100 scale)?
**A.** 60

**Q.** And the “Plant response rating, Green foxtail” value (green foxtail; [12])?
**A.** 85

**Q.** What about the “Plant response rating, I. Ryegrass” value (Italian ryegrass; Rate 250 g/ha, 0 to 100 scale) of the same molecule?
**A.** 10

**Q.** What about the “Plant response rating, I. Ryegrass” value (Italian ryegrass; [12]) of the same molecule?
**A.** 50

**Q.** What about the “Plant response rating, Wheat (winter)” value (winter wheat [2]; Rate 250 g/ha, 0 to 100 scale) of the same molecule?
**A.** 0

**Q.** And the “Plant response rating, Wheat (winter)” value (winter wheat [2]; [12])?
**A.** 10

**Q.** What about the “Plant response rating, Wild oat” value (wild oat; Rate 1000 g/ha) of the same molecule?
**A.** 20

**Q.** What about the “Plant response rating, Barley (winter)” value (winter barley; Rate 250 g/ha, 0 to 100 scale) of the same molecule?
**A.** 0

**Q.** What about the “Plant response rating, Barley (winter)” value (winter barley; [12]) of the same molecule?
**A.** 0

**Q.** Which results are given for `CC(C)N(C(=O)n1oc(=O)n(CC(F)(F)F)c1=O)c1ccc(F)cc1` [Compound 163]?
**A.** Crabgrass plant response rating (crabgrass; [4]): 7; Crabgrass plant response rating (crabgrass; [13]): 8; Crabgrass plant response rating (crabgrass; [14]): 8; Crabgrass plant response rating (crabgrass; [15]): 9; Crabgrass plant response rating (crabgrass; [16]): 6; Plant response rating, Crabgrass (crabgrass; [17]): 8; Crabgrass plant response rating (crabgrass; [18]): 9; Giant foxtail plant response rating (giant foxtail; [4]): 7; Giant foxtail plant response rating (giant foxtail; [13]): 8; Giant foxtail plant response rating (0 to 10 scale) (giant foxtail; [19]): 8; Giant foxtail plant response rating (giant foxtail; [14]): 8; Giant foxtail plant response rating (giant foxtail; [15]): 10; Giant foxtail plant response rating (giant foxtail; [16]): 6; Plant response rating, Giant foxtail (giant foxtail; [17]): 8; Giant foxtail plant response rating (giant foxtail; [18]): 8; Wheat plant response rating (wheat; [13]): 0; Wheat plant response rating (0 to 10 scale) (wheat; [19]): 2; Wheat plant response rating (wheat; [14]): 2; Wheat plant response rating (wheat; [15]): 4; Plant response rating, Wheat (wheat; [17]): 2; Wheat plant response rating (wheat; [18]): 5; Plant response rating, Wheat (winter) (winter wheat [1]; [11]): 70; Plant response rating, Wheat (winter) (winter wheat [1]; Rate 500 g/ha, 0 to 100 scale, 0 no effect, 100 complete control): 50; Wheat (winter) plant response rating (winter wheat [1]; Rate 250 g/ha, 0 to 100 scale where 0 is no effect and 100 is complete control): 40; Blackgrass plant response rating (0 to 100 scale) (blackgrass; Rate 250 g/ha): 30; Plant response rating, Blackgrass (blackgrass; [20]): 40; Plant response rating, Blackgrass (blackgrass; [12]): 50; Green foxtail plant response rating (0 to 100 scale) (green foxtail; Rate 250 g/ha): 100; Plant response rating, Green foxtail (green foxtail; [20]): 100; Plant response rating, Green foxtail (green foxtail; [12]): 100; I. Ryegrass plant response rating (0 to 100 scale) (Italian ryegrass; Rate 250 g/ha): 30; Plant response rating, I. Ryegrass (Italian ryegrass; [20]): 50; Plant response rating, I. Ryegrass (Italian ryegrass; [12]): 60; Wheat (winter) plant response rating (0 to 100 scale) (winter wheat [2]; Rate 250 g/ha): 30; Plant response rating, Wheat (winter) (winter wheat [2]; [12]): 55; Wild oat plant response rating (0 to 100 scale) (wild oat; Rate 250 g/ha): 50; Plant response rating, Wild oat (wild oat; Rate 500 g/ha): 60; Plant response rating, Wild oat (wild oat; Rate 1000 g/ha): 70; Barley (winter) plant response rating (0 to 100 scale) (winter barley; Rate 250 g/ha): 30; Plant response rating, Barley (winter) (winter barley; [20]): 40; Plant response rating, Barley (winter) (winter barley; [12]): 50

**Q.** What does the source list for `CC(C)N(C(=O)n1oc(=O)n(CCC(=O)N(C)C)c1=O)c1ccccc1` [Compound 671]?
**A.** Plant response rating, Crabgrass (crabgrass; [3]): 1; Crabgrass plant response rating (crabgrass; [4]): 1; Crabgrass plant response rating (crabgrass; [21]): 8; Crabgrass plant response rating (crabgrass; [13]): 4; Plant response rating, Crabgrass (crabgrass; [22]): 8; Plant response rating, Crabgrass (crabgrass; [23]): 8; Plant response rating, Crabgrass (crabgrass; [24]): 9; Crabgrass plant response rating (crabgrass; [25]): 9; Plant response rating, Giant foxtail (giant foxtail; [3]): 5; Giant foxtail plant response rating (giant foxtail; [4]): 5; Giant foxtail plant response rating (giant foxtail; [21]): 9; Giant foxtail plant response rating (giant foxtail; [13]): 8; Plant response rating, Giant foxtail (giant foxtail; [22]): 9; Plant response rating, Giant foxtail (giant foxtail; [23]): 10; Plant response rating, Giant foxtail (giant foxtail; [24]): 10; Giant foxtail plant response rating (giant foxtail; [25]): 9; Plant response rating, Wheat (wheat; [3]): 0; Wheat plant response rating (wheat; [4]): 0; Wheat plant response rating (wheat; [13]): 0; Plant response rating, Wheat (wheat; [22]): 0; Plant response rating, Wheat (wheat; [23]): 3; Plant response rating, Wheat (wheat; [24]): 8; Wheat plant response rating (wheat; [25]): 6; Plant response rating, Ducksalad (0 to 10 scale, 0 is no effect, 10 is complete control) (duck salad; Rate 62 g/ha, flood test species, Pre-emergence, visual evaluation after twelve to sixteen days): 0; Ducksalad plant response rating (0 to 10 scale, 0 is no effect, 10 is complete control) (duck salad; Rate 125 g/ha, under heading Pre-emergence, flood test species, visual evaluation after twelve to sixteen days): 0; Ducksalad plant response rating (duck salad; Rate 250 g/ha, Pre-emergence (flood test species), scale 0 to 10, 0 is no effect, 10 is complete control): 0; Ducksalad plant response rating (duck salad; Rate 500 g/ha, Pre-emergence section of Table B, 0 to 10 scale (0 no effect, 10 complete control)): 0
